Experimental data reported in patent US4727080A, “1-substituted derivatives of 6-fluoro-7-(pyrrol-1-yl)-1,4-dihydro-4-oxoquinoline-3-carboxylic acid, their preparation and their application as drugs” (Provesan S.A., priority 1984, dated 1988).
≈ marks a conversion by molar mass, not a printed value.

Assays:
[1] = tested on: Citrobacter freundii ATCC 11606; assay: "In vitro" MIC, Citrobacter freundii; type: cell-based; details: ATCC11606; Citrobacter freundii ATCC 11606; dextrose agar, 37° C., 20 hours; read-out: "In vitro" MIC
Method: (§1) Antimicrobial pharmacological activity (G. L. Daquet and Y. A. Chabbect, Techniques en bacteriologie (Techniques in bacteriology), vol. 3, Flammarion Medecine-Sciences, Paris, 1972, and W. B. Hugo and A. D. Rusell, Pharmaceutical Microbiology, Blackwell Scientific Publications, London (1977).
Citrobacter freundii ATCC 11606
(§2) A streak culture of each of the microorganisms is formed in tubes of antibiotics agar no. 1 and incubated for 20 hours at 37° C. A culture loop is then taken and a culture is formed in a tryptone-soya broth and incubated for 20 hours at 37° C. The resulting culture is diluted to 1/4 with Ringer's physiological solution to give a standardized suspension of 10^5 ufc/ml for each organism.
(§3) Starting from a solution of 1000 μg/ml in 0.1N NaOH, each product is diluted successively in dextrose agar (melted beforehand and kept at 50° C.) to give the following concentrations: 64-32-16-8-4-2-1-0.5-0.25-0.125 μg of derivative/ml of medium.
(§4) After this, each concentration of each product is divided up into Petri dishes of 10 cm diameter at a rate of 10 ml of medium per dish and using as many dishes as there are microorganisms to be tested.
(§5) Once the medium has cooled, the dishes are treated with the inoculations at a rate of 0.4 ml of inoculation per dish. They are spread out with a Drigalski loop and the supernatant is collected. The inoculated dishes are incubated at 37° C. for 20 hours.

Shigella flexnerii = assay: "In vitro" MIC, Shigella flexnerii; type: cell-based; details: 20 h, read-out: "In vitro" MIC
Method: as §1, §2, §3, §4, §5

[2] = tested on: Pseudomonas aeruginosa ADSA 47; assay: "In vitro" MIC, Pseudomonas aeruginosa ADSA 47; type: cell-based; details: ADSA47; Pseudomonas aeruginosa ADSA 47; dextrose agar, 37° C., 20 hours; read-out: "In vitro" MIC
Method: as §1
Pseudomonas aeruginosa ADSA 47
as §2, §3, §4, §5

[3] = tested on: Klebsiella pneumoniae ATCC 10031; assay: "In vitro" MIC, Klebsiella pneumoniae; type: cell-based; details: ATCC10031; Klebsiella pneumoniae ATCC 10031; dextrose agar, 37° C., 20 hours; read-out: "In vitro" MIC
Method: as §1
Klebsiella pneumoniae ATCC 10031
as §2, §3, §4, §5

[4] = tested on: Pseudomonas aeruginosa 25115; assay: "In vitro" MIC, Pseudomonas aeruginosa 25115; type: cell-based; details: Pseudomonas aeruginosa 25115; dextrose agar, 37° C., 20 hours; read-out: "In vitro" MIC
Method: as §1
Pseudomonas aeruginosa 25115
as §2, §3, §4, §5

Escherichia coli R-1513 = assay: "In vitro" MIC, Escherichia coli R-1513; type: cell-based; details: R1513; Escherichia coli R-1513; dextrose agar, 37° C., 20 hours; read-out: "In vitro" MIC
Method: as §1, §2, §3, §4, §5

Acute toxicity to mice = details: mouse, in vivo, ip, suspension in 5% gum arabic, mortality over 7 days
Method: The experimental animals used to determine this toxicity were albino mice of the C.F.L.P. strain and of both sexes, weighing between 19 and 25 grams. After an 18-hour fasting period with water "ad libitum", the derivatives forming the subject of the present invention are administered intraperitoneally as a suspension in 5% gum arabic. The volume of suspension administered was 0.4 ml/20 grams (20 ml/kg) in all cases, the concentration of the suspension being changed according to the dose administered.
One hour after administration of the derivatives, the animals are given a standard Panlab rat-mouse food. The mortality was observed over a period of 7 days. Differences in mortality between the sexes were not observed with any of the products.

[5] = tested on: Enterobacter cloacae CHSP-20; assay: "In vitro" MIC, Enterobacter cloacae; type: cell-based; details: CHSP20; Enterobacter cloacae CHSP-20; dextrose agar, 37° C., 20 hours; read-out: "In vitro" MIC
Method: as §1
Enterobacter cloacae CHSP-20
as §2, §3, §4, §5

[6] = tested on: Enterobacter aerogenes ATCC 15038; assay: "In vitro" MIC, Enterobacter aerogenes; type: cell-based; details: Klebsiella aerogenes, ATCC15038; Enterobacter aerogenes ATCC 15038; dextrose agar, 37° C., 20 hours; read-out: "In vitro" MIC
Method: as §1
Enterobacter aerogenes ATCC 15038
as §2, §3, §4, §5

[7] = tested on: Serratia marcescens ATTC 13880; assay: "In vitro" MIC, Serratia marcescens; type: cell-based; details: ATTC13880; Serratia marcescens ATTC 13880; dextrose agar, 37° C., 20 hours; read-out: "In vitro" MIC
Method: as §1
Serratia marcescens ATTC 13880
as §2, §3, §4, §5

[8] = tested on: Salmonella typhimurium AMES 98; assay: "In vitro" MIC, Salmonella typhimurium AMES 98; type: cell-based; details: Salmonella enterica; Salmonella typhimurium AMES 98; dextrose agar, 37° C., 20 hours; read-out: "In vitro" MIC
Method: as §1
Salmonella typhimurium AMES 98
as §2, §3, §4, §5

Proteus morganii CHSP-16 = assay: "In vitro" MIC, Proteus morganii; type: cell-based; details: Morganella morganii, CHSP16; Proteus morganii CHSP-16; dextrose agar, 37° C., 20 hours; read-out: "In vitro" MIC
Method: as §1, §2, §3, §4, §5

[9] = tested on: Streptococcus faecalis ATCC 10541; assay: "In vitro" MIC, Streptococcus faecalis; type: cell-based; details: Enterococcus faecalis, ATCC10541; Streptococcus faecalis ATCC 10541; dextrose agar, 37° C., 20 hours; read-out: "In vitro" MIC
Method: as §1
Streptococcus faecalis ATCC 10541
as §2, §3, §4, §5

[10] = tested on: Salmonella typhimurium AMES 100; assay: "In vitro" MIC, Salmonella typhimurium AMES 100; type: cell-based; details: Salmonella enterica; Salmonella typhimurium AMES 100; dextrose agar, 37° C., 20 hours; read-out: "In vitro" MIC
Method: as §1
Salmonella typhimurium AMES 100
as §2, §3, §4, §5

[11] = tested on: Proteus mirabilis ATCC 4675; assay: "In vitro" MIC, Proteus mirabilis; type: cell-based; details: ATCC4675; Proteus mirabilis ATCC 4675; dextrose agar, 37° C., 20 hours; read-out: "In vitro" MIC
Method: as §1
Proteus mirabilis ATCC 4675
as §2, §3, §4, §5

[12] = tested on: Staphylococcus aureus ATCC 5488/23; assay: "In vitro" MIC, Staphylococcus aureus ATCC 5488/23; type: cell-based; details: ATCC5488; Staphylococcus aureus ATCC 5488/23; dextrose agar, 37° C., 20 hours; read-out: "In vitro" MIC
Method: as §1
Staphylococcus aureus ATCC 5488/23
as §2, §3, §4, §5

[13] = tested on: Gram-negative microorganisms; assay: "In vitro" antimicrobial activity compared with nalidixic acid, Gram-negative microorganisms; type: cell-based
Method: as §1, §2, §3, §4, §5

[14] = tested on: Staphylococcus aureus ATCC 25178; assay: "In vitro" MIC, Staphylococcus aureus ATCC 25178; type: cell-based; details: ATCC25178; Staphylococcus aureus ATCC 25178; dextrose agar, 37° C., 20 hours; read-out: "In vitro" MIC
Method: as §1
Staphylococcus aureus ATCC 25178
as §2, §3, §4, §5

Sarcina lutea ATCC 9341 = assay: "In vitro" MIC, Sarcina lutea; type: cell-based; details: Micrococcus luteus, ATCC9341; Sarcina lutea ATCC 9341; dextrose agar, 37° C., 20 hours; read-out: "In vitro" MIC
Method: as §1, §2, §3, §4, §5

[15] = tested on: Bacillus subtilis ATCC 6633; assay: "In vitro" MIC, Bacillus subtilis; type: cell-based; details: ATCC6633; Bacillus subtilis ATCC 6633; dextrose agar, 37° C., 20 hours; read-out: "In vitro" MIC
Method: as §1
Bacillus subtilis ATCC 6633
as §2, §3, §4, §5

Gram-positive cocci = assay: "In vitro" antimicrobial activity compared with nalidixic acid, Gram-positive cocci; type: cell-based
Method: as §1, §2, §3, §4, §5

[16] = tested on: Micrococcus flavus ATCC 10240; assay: "In vitro" MIC, Micrococcus flavus; type: cell-based; details: ATCC10240; Micrococcus flavus ATCC 10240; dextrose agar, 37° C., 20 hours; read-out: "In vitro" MIC
Method: as §1
Micrococcus flavus ATTC 10240
as §2, §3, §4, §5

[17] = tested on: Escherichia coli ATCC 10536; assay: "In vitro" MIC, Escherichia coli ATCC 10536; type: cell-based; details: ATCC10536; Escherichia coli ATCC 10536; dextrose agar, 37° C., 20 hours; read-out: "In vitro" MIC
Method: as §1
Escherichia coli ATCC 10536
as §2, §3, §4, §5

SMILES | MIC [1] [µg/mL] | MIC (Shigella flexnerii) [µg/mL] | MIC [2] [µg/mL] | MIC [3] [µg/mL] | MIC [4] [µg/mL] | MIC (Escherichia coli R-1513) [µg/mL] | LD50 at 168 h (Acute toxicity to mice) [mg/kg] | MIC [5] [µg/mL] | MIC [6] [µg/mL] | MIC [7] [µg/mL] | MIC [8] [µg/mL] | MIC (Proteus morganii CHSP-16) [µg/mL] | MIC [9] [µg/mL] | MIC [10] [µg/mL] | MIC [11] [µg/mL] | MIC [12] [µg/mL] | activity compared with nalidixic acid [13] | MIC [14] [µg/mL] | MIC (Sarcina lutea ATCC 9341) [µg/mL] | MIC [15] [µg/mL] | also measured
O=C(O)c1cn(CC2CC2)c2cc(-n3cccc3)c(F)cc2c1=O [Example 4, 6-fluoro-7-(pyrrol-1-yl)-1-cyclopropylmethyl-4-oxo-1,4-dihydroquinoline-3-carboxylic acid] | 16 (≈ 49 µM) | 4 (≈ 12.3 µM) | ≥ 32 | 1 (≈ 3.06 µM) | ≥ 32 | 8 (≈ 24.5 µM) | > 1600 | 4 (≈ 12.3 µM) | 8 (≈ 24.5 µM) | 4 (≈ 12.3 µM) | 0.25 (≈ 0.766 µM) | 8 (≈ 24.5 µM) | 16 (≈ 49 µM) | 2 (≈ 6.13 µM) | 32 (≈ 98.1 µM) | 2 (≈ 6.13 µM) | activity of the same order as nalidixic acid | 1 (≈ 3.06 µM) | 8 (≈ 24.5 µM) | 0.125 (≈ 0.383 µM) | "in vitro" activity compared with nalidixic acid (Gram-positive cocci): greater activity towards Gram-positive cocci; MIC [16]: 1 µg/mL (≈ 3.06 µM); MIC [17]: 0.25 µg/mL (≈ 0.766 µM)
Cn1cc(C(=O)O)c(=O)c2cc(F)c(-n3cccc3)cc21 [Example 1, 6-fluoro-7-(pyrrol-1-yl)-1-methyl-4-oxo-1,4-dihydroquinoline-3-carboxylic acid] | 2 (≈ 6.99 µM) | 4 (≈ 14 µM) | ≥ 32 | 1 (≈ 3.49 µM) | 16 (≈ 55.9 µM) | 4 (≈ 14 µM) | > 800 | 2 (≈ 6.99 µM) | 2 (≈ 6.99 µM) | 16 (≈ 55.9 µM) | 4 (≈ 14 µM) | 2 (≈ 6.99 µM) | 32 (≈ 112 µM) | 8 (≈ 27.9 µM) | 4 (≈ 14 µM) | 0.5 (≈ 1.75 µM) | activity of the same order as nalidixic acid | 0.5 (≈ 1.75 µM) | 16 (≈ 55.9 µM) | 0.125 (≈ 0.437 µM) | "in vitro" activity compared with nalidixic acid (Gram-positive cocci): greater activity towards Gram-positive cocci; MIC [16]: 4 µg/mL (≈ 14 µM); MIC [17]: 0.05 µg/mL (≈ 0.175 µM)
